# Assay results: patent EP4650362A1, “NEUROPROTECTIVE PSD-95 POLYPEPTIDE INHIBITOR AND USE THEREOF” (Beijing Tuo Jie Biopharmaceutical Co. Ltd., priority 2023, dated 2024)
# Where two headings read alike, the source gives them in different places. Non-standard residues stand in square brackets, D forms with d. Residues, ends and D or L forms follow the SMILES beside them. No end group written: not given here. Tle = CC(C)(C)[C@H](N)C(=O)O; Dab = NCC[C@H](N)C(=O)O; Aib = CC(C)(N)C(=O)O
# Key:
# histamine release = assay: ability to induce histamine release in beagle dogs (plasma); assay type: in vivo; design: Histamine levels (sums of detected histamine and 3-methylhistamine): unit not given here; conditions: for Histamine levels (sums of detected histamine and 3-methylhistamine): beagle dog plasma
# Method: With beagle dogs as test animals, the ability of a polypeptide compound administered via single intravenous infusion to induce histamine release in dogs (plasma) was studied.
# This test was performed synchronously with Test Examples 3.9, with four animals per group and blood collection time points set as follows: before administration (0 h), and 2 min, 5 min, and 15 min after the end of intravenous infusion.
# Sample analysis and data processing were performed with reference to the methods in 3.7.3. Table 10. Histamine levels at different time points
# [1] = plasma stability test, rat plasma; assay type: in vitro ADME; conditions: Rat plasma, 25 µM
# Method: Solution preparation: An appropriate amount of a test polypeptide compound was weighed out and dissolved in an appropriate amount of 1× PBS to form a 1 mM test solution. NA-1 and NoNO42 were used as positive drugs, propantheline bromide was used as a human plasma test control, and lovastatin was used as a rat plasma test control. Plasma stability test: 12.5 µL of the 1 mM test solution was added to a 495 µL pre-incubated plasma sample. […] For each incubation time, two parallel samples were set. Subsequently, 200 µL of stop solution was added to stop the incubation, and the mixtures were vortexed for 5 min. Then the mixtures were centrifuged at 10,000 rpm at 4 °C for 10 min to remove the protein in the sample, and 70 µL of the supernatant was transferred to a new 96-well plate (70 µL of water was added to each well beforehand) and well mixed. […] Sample pretreatment: […] LC-MS analysis: […] (2) Mass-spectrometric conditions: The mass spectrometry analysis used an electrospray ionization (ESI) source, a positive ion analysis mode, and a multi-reaction monitoring (MRM) scan mode. […] The plasma stability of the polypeptide compound
# [2] = pharmacokinetic study of different doses in rats; assay type: in vivo, SD rats; conditions: intravenous bolus injection, 3 nmol/g, n = 3
# Method: For example, at high doses, the agent causes symptoms such as tachycardia and blood pressure reduction due to excessive histamine release. Therefore, the pharmacokinetic profile of polypeptide compound 14 was assessed again using three doses: a high dose (3 nmol/g), a medium dose (1 nmol/g), and a low dose (0.3 nmol/g). […] Plasma concentration-time curves were plotted, and the pharmacokinetic parameters were calculated using WinNonlin software. Table 6. Intravenous bolus injection pharmacokinetic parameters in rats (different doses, n = 3)
# [3] = test system: rat red blood cell suspensions; assay: hemolysis risk test in rat whole blood; assay type: cell-based; conditions: for Hemolysis rate (%): Rat, 37 °C 1 h
# Description: Hemolysis refers to the phenomenon in which the membrane of erythrocytes is destroyed, along with increased transparency and a dark red appearance. Certain pharmaceutical ingredients, excipients, etc. may contain hemolytic components, which may cause hemolysis in the human body and cause adverse reactions such as local swelling and blood circulation dysfunction. On the basis of the principle that the hemoglobin released from lysed red blood cells has absorption in the visible light wave band, test compound solutions were added to rat red blood cell suspensions, and after incubation, the degrees of hemolysis were determined using a microplate reader.
# This test example assessed whether a polypeptide compound causes hemolytic reactions in rat, rabbit, and human whole blood.
# Preparation of red blood cell suspension: 100 µL of fresh whole blood was collected, and 900 µL of 1× PBS solution was then added. The mixture was shaken on a plate shaker at 30 rpm for 5 min and then centrifuged at 1000 g for 5 min, and the supernatant was discarded. The above washing step was repeated until the supernatant no longer appeared red. The suspension was set aside for later use.
# Preparation of test polypeptide solutions: An appropriate amount of 1× PBS solution was added to a powdered polypeptide, and the polypeptide was dissolved to form a standard stock solution. […] Meanwhile, blank 1× PBS was used as a negative control, and a 1× PBS solution containing 0.1% Triton X-100 was used as a positive control.
# Incubation: A test solution (500 µL) was added to the red blood cell suspension, and then the mixture was well shaken on a plate shaker at 30 rpm for 5 min, incubated at 37 °C for 1 h, and centrifuged at 1000 g for 5 min.
# 100 µL of the supernatant was transferred to a single well of a microplate. The absorbance at 540 nm was measured using a SpectraMax M5 microplate reader, and data analysis was performed using GraphPad Prism 9. The hemolysis rate (%) was calculated using the formula: (test sample absorbance - negative control absorbance) / (positive control absorbance - negative control absorbance) × 100%. A rate of less than 5% indicates the absence of hemolysis, while a rate of greater than 5% indicates the presence of hemolysis. Table 3. Testing of the hemolysis risk of the polypeptide compound
# [4] = 1.2 nmol/g, 0 min (before administration)
# [5] = 1.2 nmol/g, 2 min after the end of intravenous infusion
# [6] = 1.2 nmol/g, 5 min after the end of intravenous infusion
# [7] = 1.2 nmol/g, 15 min after the end of intravenous infusion
compound,measurement,setting,value
"CC(C)[C@H](NC(=O)[C@H](CC(=O)O)NC(=O)[C@@H](NC(=O)[C@@H](NC(=O)[C@@H](NC(=O)[C@@H](NC(=O)[C@H](CCN)NC(=O)C(C)(C)NC(=O)CNC(=O)[C@@H](CCCNC(=N)N)NC(=O)[C@H](CCCNC(=N)N)NC(=O)[C@H](CCCNC(=N)N)NC(=O)[C@H](CCC(N)=O)NC(=O)[C@@H](CCCNC(=N)N)NC(=O)[C@H](CCCNC(=N)N)NC(=O)[C@H](CCCCN)NC(=O)[C@H](CCCCN)NC(=O)[C@H](N)CCCNC(=N)N)[C@@H](C)O)C(C)(C)C)C(C)(C)C)[C@@H](C)O)C(=O)O [Polypeptide compound 22, r-K-K-R-r-Q-R-R-r-G-Aib-Dab-T-Tle-Tle-T-D-V] (H-[dR]KKR[dR]QRR[dR]G[Aib][Dab]T[Tle][Tle]TDV-OH)",Histamine levels (sums of detected histamine and 3-methylhistamine),"histamine release; 0.4 nmol/g, 0 min (before administration)",6.28±5.01
same,Histamine levels (sums of detected histamine and 3-methylhistamine),"histamine release; 0.4 nmol/g, 2 min after the end of intravenous infusion",9.45±7.38
same,Histamine levels (sums of detected histamine and 3-methylhistamine),"histamine release; 0.4 nmol/g, 5 min after the end of intravenous infusion",11.70±8.39
same,Histamine levels (sums of detected histamine and 3-methylhistamine),"histamine release; 0.4 nmol/g, 15 min after the end of intravenous infusion",7.97±2.75
same,Histamine levels (sums of detected histamine and 3-methylhistamine),histamine release; [4],7.06±4.14
same,Histamine levels (sums of detected histamine and 3-methylhistamine),histamine release; [5],12.71±10.47
same,Histamine levels (sums of detected histamine and 3-methylhistamine),histamine release; [6],6.24±1.78
same,Histamine levels (sums of detected histamine and 3-methylhistamine),histamine release; [7],5.81±1.44
same,changes in histamine levels compared to before administration,"histamine release; beagle dogs, both doses (0.4 and 1.2 nmol/g)",no significant changes in histamine levels
same,Relative remaining compound content (%),[1]; 0min (standard 100%),100.0%
same,"remaining at 10 min, 25 µM","[1]; 10min, read-out: Relative remaining compound content (%)",116%
same,"remaining at 20 min, 25 µM","[1]; 20min, read-out: Relative remaining compound content (%)",105%
same,"remaining at 0.5 h, 25 µM","[1]; 30min, read-out: Relative remaining compound content (%)",110%
same,"remaining at 1 h, 25 µM","[1]; 60min, read-out: Relative remaining compound content (%)",102%
same,Relative remaining compound content (%),[1]; 120min,124.8%
"YGRKKRRQRRRKLSSIESDV [NA-1, YGRKKRRQR RRKLSSIESDV, reference compound]",half-life,"[2]; SD, rat, in vivo",2.1 min
same,AUC(0-t),[2]; blood to 180 min,1149 ng·h/mL
same,AUC(inf),[2],1154 ng·h/mL
same,Cmax,[2],7188 ng/mL
same,MRTO-inf,[2],7.5 min
same,Histamine levels (sums of detected histamine and 3-methylhistamine),histamine release; [4],7.08±3.15
same,Histamine levels (sums of detected histamine and 3-methylhistamine),histamine release; [5],40.47±64.51
same,Histamine levels (sums of detected histamine and 3-methylhistamine),histamine release; [6],73.95±131.85
same,Histamine levels (sums of detected histamine and 3-methylhistamine),histamine release; [7],68.80±124.89
same,Hemolysis rate (%),[3]; 1.0 µM,-0.12%
same,Hemolysis rate (%),[3]; 2.5 µM,0.03%
same,Hemolysis rate (%),[3]; 5.0 µM,0.50%
same,Hemolysis rate (%),[3]; 10 µM,0.48%
same,Hemolysis rate (%),[3]; 25 µM,0.34%
same,Hemolysis rate (%),[3]; 50 µM,-0.46%
same,hemolysis rates,"[3]; rat whole blood, concentration range of 1 to 50 µM",less than 5%
same,Relative remaining compound content (%),[1]; 0min (standard 100%),100.0%
same,Relative remaining compound content (%),[1]; 10min,103.7%
same,Relative remaining compound content (%),[1]; 20min,77.5%
same,Relative remaining compound content (%),[1]; 30min,69.5%
same,Relative remaining compound content (%),[1]; 60min,54.4%
same,Relative remaining compound content (%),[1]; 120min,42.1%
same,"remaining at 10 min, 25 µM","[1]; rat, plasma, 10min, read-out: Relative remaining compound content (%)",94.1%
same,"remaining at 20 min, 25 µM","[1]; rat, plasma, 20min, read-out: Relative remaining compound content (%)",83%
same,"remaining at 0.5 h, 25 µM","[1]; rat, plasma, 30min, read-out: Relative remaining compound content (%)",73.3%
same,"remaining at 1 h, 25 µM","[1]; rat, plasma, 60min, read-out: Relative remaining compound content (%)",57%
same,"remaining at 2 h, 25 µM","[1]; rat, plasma, 120min, read-out: Relative remaining compound content (%)",28.4%
